Test results published in patent US20030129629A1, “Methods and compositions for the identification, assessment, prevention, and therapy of human cancers” (Millennium Pharmaceuticals, Inc., priority 2000, published 2003).
Like-named read-outs stand apart in the source and are kept apart here.

How the values were obtained:
[1] = system: 60 cancer cell lines (NCI 60 cancer cell line series); details: cited from earlier work
[2] = system: 60 cancer cell lines (NCI 60 cancer cell line series); assay: NCI-DTP in vitro cancer screen, sulforhodamine B (SRB) growth inhibition, 48 hour exposure; assay type: cell-based, human
Procedure, shortened: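 NCI-DTP panel of 60 cancer cell lines plated day 0 at line-specific densities, exposed from day 1 to compound at 5 ten-fold-spaced doses in duplicate wells. After 48 h, cell mass stained with sulforhodamine B; −log GI50 derived from dose–response curves, averaged, and classed Low, Medium or High sensitivity.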

For `COc1cccc2c1C(=O)c1c(O)c3c(c(O)c1C2=O)C[C@@](O)(C(=O)CO)C[C@@H]3O[C@H]1C[C@H](N)[C@H](O)[C@H](C)O1` [Adriamycin], the “−Log (GI50)” value ([1]; Melanoma SK-MEL-2 CL10005) is listed as 6.6, the “−Log (GI50)” value ([1]; Melanoma SK-MEL-28 CL10008) is listed as 6.5 and the “−Log (GI50)” value ([1]; NSCLC NCI-H226 CL1013) is listed as 7.2. The “classification of cell line as Low(1), Medium(2), High(3) sensitivity to compound” value (“classification of cell line” for short) ([2]; Breast BT-549 CL5013) was 2, the “classification of cell line” value ([2]; Breast HS-578T CL5006) was 2 and the “classification of cell line” value ([2]; Breast MCF7(I) CL5001) was 3. The “classification of cell line” value ([2]; Breast MCF7/ADRr CL5002) was 1, the “classification of cell line” value ([2]; Breast MDA-MB-231 CL5005) was 2 and the “classification of cell line” value ([2]; Breast MDA-MB-435 CL5011) was 2. The “classification of cell line” value ([2]; Breast MDA-N CL5012) was 2, the “classification of cell line” value ([2]; Breast T-47D CL5014) was 2 and the “classification of cell line” value ([2]; CNS SF-268 CL12014) was 2. For the same compound, the “classification of cell line” value ([2]; CNS SF-295 CL12015) was 2, the “classification of cell line” value ([2]; CNS SF-539 CL12016) was 2 and the “classification of cell line” value ([2]; CNS SNB-19 CL12002) was 2. The “classification of cell line” value ([2]; CNS SNB-75(I) CL12005) was 2, the “classification of cell line” value ([2]; CNS U251(I) CL12009) was 2 and the “classification of cell line” value ([2]; Colon COLO-250 CL4010) was 2. The “classification of cell line” value ([2]; Colon HCC-2998 CL4002) was 2, the “classification of cell line” value ([2]; Colon HCT-15 CL4015) was 1 and the “classification of cell line” value ([2]; Colon HCT-116 CL4003) was 2. The “classification of cell line” value ([2]; Colon HT29(I) CL4001) was 2, the “classification of cell line” value ([2]; Colon KM12 CL4017) was 2 and the “classification of cell line” value ([2]; Colon SW-620 CL4009) was 2. The “classification of cell line” value ([2]; Leukemia CCRF-CEM(I) CL7003) was 3, the “classification of cell line” value ([2]; Leukemia HL-60(I) CL7008) was 2 and the “classification of cell line” value ([2]; Leukemia K562(I) CL7005) was 2. The “classification of cell line” value ([2]; Leukemia MOLT-4 CL7006) was 3, the “classification of cell line” value ([2]; Leukemia RPMI-8226(I) CL7010) was 2 and the “classification of cell line” value ([2]; Leukemia SR CL7019) was 3. The “classification of cell line” value ([2]; Melanoma LOX IMVI CL10001) was 2, the “classification of cell line” value ([2]; Melanoma M14 CL10014) was 2 and the “classification of cell line” value ([2]; Melanoma MALME-3M CL10002) was 2. For the same compound, the “classification of cell line” value ([2]; Melanoma SK-MEL-2 CL10005) was 2, the “classification of cell line” value ([2]; Melanoma SK-MEL-28 CL10008) was 2 and the “sensitivity classification Low(1)/Medium(2)/High(3)” value ([2]; NSCLC NCI-H23(I) CL1001) was 2. The “sensitivity classification Low(1)/Medium(2)/High(3)” value ([2]; NSCLC NCI-H332M CL1017) was 1, the “sensitivity classification Low(1)/Medium(2)/High(3)” value ([2]; NSCLC NCI-H460 CL1021) was 3 and the “sensitivity classification Low(1)/Medium(2)/High(3)” value ([2]; NSCLC NCI-H522 CL1003) was 2. The “sensitivity classification Low(1)/Medium(2)/High(3)” value ([2]; Ovarian IGROV1 CL6010) was 2, the “sensitivity classification Low(1)/Medium(2)/High(3)” value ([2]; Ovarian OVCAR-3 CL6001) was 2 and the “sensitivity classification Low(1)/Medium(2)/High(3)” value ([2]; Ovarian OVCAR-4 CL6002) was 1. The “sensitivity classification Low(1)/Medium(2)/High(3)” value ([2]; Ovarian OVCAR-5 CL6003) was 1, the “sensitivity classification Low(1)/Medium(2)/High(3)” value ([2]; Ovarian OVCAR-8 CL6005) was 2 and the “sensitivity classification Low(1)/Medium(2)/High(3)” value ([2]; Ovarian SK-OV-3 CL6011) was 2. For the same compound, the “sensitivity classification Low(1)/Medium(2)/High(3)” value ([2]; Prostate DU-145 CL11003) was 2, the “sensitivity classification Low(1)/Medium(2)/High(3)” value ([2]; Prostate PC-3(I) CL11001) was 2 and the “sensitivity classification Low(1)/Medium(2)/High(3)” value ([2]; Renal 786-0 CL9018) was 2. For the same compound, the “sensitivity classification Low(1)/Medium(2)/High(3)” value ([2]; Renal A498 CL9013) was 2, the “sensitivity classification Low(1)/Medium(2)/High(3)” value ([2]; Renal ACHN CL9023) was 2 and the “sensitivity classification Low(1)/Medium(2)/High(3)” value ([2]; Renal CAKI-1 CL9015) was 2. For the same compound, the “sensitivity classification Low(1)/Medium(2)/High(3)” value ([2]; Renal RXF-393 CL9016) was 2, the “sensitivity classification Low(1)/Medium(2)/High(3)” value ([2]; Renal SN12C CL9008) was 2 and the “sensitivity classification Low(1)/Medium(2)/High(3)” value ([2]; Renal TK10 CL9024) was 2. The “sensitivity classification Low(1)/Medium(2)/High(3)” value ([2]; Renal UO-31 CL9004) was 1.

For `O=c1[nH]cc(F)c(=O)[nH]1` [5-Fluorouracil], the “−Log (GI50)” value ([1]; Melanoma SK-MEL-2 CL10005) is listed as 3.3, the “−Log (GI50)” value ([1]; Melanoma SK-MEL-5 CL10007) is listed as 4.9 and the “−Log (GI50)” value ([1]; Melanoma SK-MEL-28 CL10008) is listed as 4.5. The “−Log (GI50)” value ([1]; Melanoma UACC-62 CL10020) was 4.9, the “−Log (GI50)” value ([1]; Melanoma UACC-257 CL10021) was 3.9 and the “−Log (GI50)” value ([1]; NSCLC A549/ATCC CL1004) was 5.7. For the same compound, the “−Log (GI50)” value ([1]; NSCLC EKVX CL1008) was 3.3, the “−Log (GI50)” value ([1]; NSCLC HOP-62 CL1026) was 4.8 and the “−Log (GI50)” value ([1]; NSCLC HOP-92 CL1029) was 4.0. The “−Log (GI50)” value ([1]; NSCLC NCI-H226 CL1013) was 3.6, the “classification of cell line” value ([2]; Breast BT-549 CL5013) was 1 and the “classification of cell line” value ([2]; Breast HS-578T CL5006) was 1. For the same compound, the “classification of cell line” value ([2]; Breast MCF7(I) CL5001) was 3, the “classification of cell line” value ([2]; Breast MCF7/ADRr CL5002) was 2 and the “classification of cell line” value ([2]; Breast MDA-MB-231 CL5005) was 1. The “classification of cell line” value ([2]; Breast MDA-MB-435 CL5011) was 2, the “classification of cell line” value ([2]; Breast MDA-N CL5012) was 2 and the “classification of cell line” value ([2]; Breast T-47D CL5014) was 2. For the same compound, the “classification of cell line” value ([2]; CNS SF-268 CL12014) was 2, the “classification of cell line” value ([2]; CNS SF-295 CL12015) was 2 and the “classification of cell line” value ([2]; CNS SF-539 CL12016) was 3. For the same compound, the “classification of cell line” value ([2]; CNS SNB-19 CL12002) was 1, the “classification of cell line” value ([2]; CNS SNB-75(I) CL12005) was 1 and the “classification of cell line” value ([2]; CNS U251(I) CL12009) was 2. The “classification of cell line” value ([2]; Colon COLO-250 CL4010) was 2, the “classification of cell line” value ([2]; Colon HCC-2998 CL4002) was 3 and the “classification of cell line” value ([2]; Colon HCT-15 CL4015) was 2. For the same compound, the “classification of cell line” value ([2]; Colon HCT-116 CL4003) was 3, the “classification of cell line” value ([2]; Colon HT29(I) CL4001) was 2 and the “classification of cell line” value ([2]; Colon KM12 CL4017) was 2. The “classification of cell line” value ([2]; Colon SW-620 CL4009) was 2, the “classification of cell line” value ([2]; Leukemia CCRF-CEM(I) CL7003) was 2 and the “classification of cell line” value ([2]; Leukemia HL-60(I) CL7008) was 2. The “classification of cell line” value ([2]; Leukemia K562(I) CL7005) was 2, the “classification of cell line” value ([2]; Leukemia MOLT-4 CL7006) was 2 and the “classification of cell line” value ([2]; Leukemia RPMI-8226(I) CL7010) was 3. The “classification of cell line” value ([2]; Leukemia SR CL7019) was 2, the “classification of cell line” value ([2]; Melanoma LOX IMVI CL10001) was 2 and the “classification of cell line” value ([2]; Melanoma M14 CL10014) was 2. The “classification of cell line” value ([2]; Melanoma MALME-3M CL10002) was 2, the “classification of cell line” value ([2]; Melanoma SK-MEL-2 CL10005) was 1 and the “classification of cell line” value ([2]; Melanoma SK-MEL-28 CL10008) was 2. For the same compound, the “sensitivity classification Low(1)/Medium(2)/High(3)” value ([2]; NSCLC NCI-H23(I) CL1001) was 2, the “sensitivity classification Low(1)/Medium(2)/High(3)” value ([2]; NSCLC NCI-H332M CL1017) was 2 and the “sensitivity classification Low(1)/Medium(2)/High(3)” value ([2]; NSCLC NCI-H460 CL1021) was 3. For the same compound, the “sensitivity classification Low(1)/Medium(2)/High(3)” value ([2]; NSCLC NCI-H522 CL1003) was 2, the “sensitivity classification Low(1)/Medium(2)/High(3)” value ([2]; Ovarian IGROV1 CL6010) was 2 and the “sensitivity classification Low(1)/Medium(2)/High(3)” value ([2]; Ovarian OVCAR-3 CL6001) was 2. For the same compound, the “sensitivity classification Low(1)/Medium(2)/High(3)” value ([2]; Ovarian OVCAR-4 CL6002) was 2, the “sensitivity classification Low(1)/Medium(2)/High(3)” value ([2]; Ovarian OVCAR-5 CL6003) was 1 and the “sensitivity classification Low(1)/Medium(2)/High(3)” value ([2]; Ovarian OVCAR-8 CL6005) was 2. The “sensitivity classification Low(1)/Medium(2)/High(3)” value ([2]; Ovarian SK-OV-3 CL6011) was 1, the “sensitivity classification Low(1)/Medium(2)/High(3)” value ([2]; Prostate DU-145 CL11003) was 2 and the “sensitivity classification Low(1)/Medium(2)/High(3)” value ([2]; Prostate PC-3(I) CL11001) was 2. The “sensitivity classification Low(1)/Medium(2)/High(3)” value ([2]; Renal 786-0 CL9018) was 2, the “sensitivity classification Low(1)/Medium(2)/High(3)” value ([2]; Renal A498 CL9013) was 2 and the “sensitivity classification Low(1)/Medium(2)/High(3)” value ([2]; Renal ACHN CL9023) was 2. For the same compound, the “sensitivity classification Low(1)/Medium(2)/High(3)” value ([2]; Renal CAKI-1 CL9015) was 3, the “sensitivity classification Low(1)/Medium(2)/High(3)” value ([2]; Renal RXF-393 CL9016) was 2 and the “sensitivity classification Low(1)/Medium(2)/High(3)” value ([2]; Renal SN12C CL9008) was 2. For the same compound, the “sensitivity classification Low(1)/Medium(2)/High(3)” value ([2]; Renal TK10 CL9024) was 1 and the “sensitivity classification Low(1)/Medium(2)/High(3)” value ([2]; Renal UO-31 CL9004) was 2.
